Values of other authors, collected in patent US5300491A, “Treatment of protozoal infection” (priority 1992, dated 1994).

Tested on: mouse lymphoma cell
Settings: cited from earlier work

Substance: Zinc bacitracin
- mutation frequency at the TK gene locus: no significant increase in the mutation frequency
